Key:
in vitro = conditions: human
Description: Pancreatic cancer cell line AsPC-1 cells (5×10^3 cells/well in 96-well plates) were cultured in 1% serum medium with various concentrations of MSLN-pep peptide that specifically binds to mesothelin, NSSSVDK control peptide (Ctrl-pep), R7-KLA peptide that induces apoptosis, Abraxane, gemcitabine, and PBS at 37° C. for 24 and 48 hours. Afterwards, CCK-8 Kit (Dojindo, Kumamoto, Japan) reagent was treated, and a reaction was carried out at 37° C. for 2 hours to evaluate cytotoxicity.
To determine whether there is cytotoxicity when MSLN-pep binds specifically to mesothelin, the peptide was treated to the pancreatic cancer cell line AsPC-1 at concentrations of 0, 25, 50, 100, and 200 μM, and cell viability was checked for 24 and 48hours.

mesothelin [1] = target: T1, mesothelin (Homo sapiens, UniProt Q13421); experiment: immunofluorescence binding to HEK-293T cells transiently transfected with mesothelin-GFP plasmid; format: cell-based; design: GFP; host or cells: HEK293T; conditions: 10 μM and 25 μM MSLN-pep, 25 μM Ctrl-pep; transfected and untransfected HEK-293T
Description: HEK293T cells were transiently transfected using Lipofectamine 3000 (Invitrogen) in 6-well plates according to the manufacturer's protocol. Prior to transfection, 2×10^5 cells were cultured in 6-well plates for 24 hours. To transfect one well, 7.5 μl of Lipofectamine 3000 reagent was diluted in 250 μl of Opti-MEM (Invitrogen) reagent, followed by a reaction at room temperature for 5 minutes. 5 μg of mesothelin-expressing plasmid pCMV6-AC-GFP vector DNA was diluted in 250 μl of Opti-MEM (Invitrogen) reagent, followed by a reaction at room temperature for 5 minutes. The mixture of two solutions were then mixed and reacted at room temperature for 10 minutes (a total of 500 μl per well). The old medium of the cells was immediately removed, and a 500 μl of DNA-transfection reagent-mixture was added to the cells before transfer to the incubator. After 24 hours of culture, the medium was again replaced with a pre-warmed growth medium containing serum. Culture was performed for 48 hours, and the newly inserted protein was expressed in the cells.
(§1) Taken together, it was found via immunofluorescence analysis that MSLN-pep specifically binds to mesothelin.
Target sequence in this assay (Q13421 with tags, fused parts or gaps): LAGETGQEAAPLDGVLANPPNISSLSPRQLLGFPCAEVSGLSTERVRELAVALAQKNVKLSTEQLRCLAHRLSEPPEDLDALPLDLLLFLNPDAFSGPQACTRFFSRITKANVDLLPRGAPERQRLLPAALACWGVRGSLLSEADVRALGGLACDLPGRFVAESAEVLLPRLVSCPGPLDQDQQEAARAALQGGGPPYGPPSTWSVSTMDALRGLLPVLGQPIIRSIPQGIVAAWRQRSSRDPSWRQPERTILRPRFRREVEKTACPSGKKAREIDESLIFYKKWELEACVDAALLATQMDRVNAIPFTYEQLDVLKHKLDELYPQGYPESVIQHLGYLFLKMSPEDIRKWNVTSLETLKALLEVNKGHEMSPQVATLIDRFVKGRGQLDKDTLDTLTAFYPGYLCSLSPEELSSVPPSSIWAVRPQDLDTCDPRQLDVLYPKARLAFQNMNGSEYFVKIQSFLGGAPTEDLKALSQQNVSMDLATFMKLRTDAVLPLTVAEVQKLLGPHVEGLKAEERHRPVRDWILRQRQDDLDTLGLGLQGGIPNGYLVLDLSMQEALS

mesothelin [2] = target: T1, mesothelin; experiment: phage-binding ELISA and phage immunofluorescence staining of phage clones; design: GFP; host or cells: HEK293T; conditions: phage clone, compared to other phage clones
Description: A phage peptide library based on the T7 415-1b phage vector, represented by CX7C (C, cysteine; X, any amino acid residue) was designed according to the manufacturer's instructions (Novagen, Madison, WI). The phage library has approximately 1×10^9 plaque-forming unit (pfu). In other words, HEK-293T cells transfected with a mesothelin-expressing plasmid pCMV6-AC-GFP vector were dispensed in a 35 mm dish and cultured to meet a confluency of 60-70%. For transient transfection of HEK-293T cells, the cells were treated with Lipofectamine 3000 (Invitrogen) and cultured for 48 hours. First, phage libraries with 1×109 plaque-forming unit (pfu) were cultured in untransfected HEK-293T cells at 4° C. for 30 minutes. […] The eluate was used for titration, the remaining eluted phage clones were lysed in 10 ml of LB medium for amplification for the next cycle, and the process was repeated 5 times. […]
To screen peptides specifically binding to mesothelin, the present inventors first prepared HEK-293T cells transiently transfected with a mesothelin-GFP plasmid. […] As a result of observing mesothelin-GFP expression via immunofluorescence analysis, transfection was detected at each time point compared to untransfected HEK-293T cells (FIG. 2A). […]
Target sequence in this assay (Q13421 with tags, fused parts or gaps): as above

[3] = tested on: PANC-1 and AsPC-1 cell lines; experiment: analysis of migration (24-transwell); format: cell-based, human; conditions: 24 hours
Description: PANC-1 and AsPC-1 cell lines were cultured using DMEM and RPMI-1640 media with 10% FBS added respectively in the upper chamber of 24-transwell at a concentration of 2×10^4 cells per well. After 24 hours, all the media in the upper chamber of 24-transwells were removed and replaced with DMEM and RPMI-1640 media without addition of 10% FBS to inhibit migratability of cell lines, so as to be in a starvation state. After 24 hours, the experimental group was added with 10% FBS in the lower chamber, and the control was added with 0% FBS in the lower chamber to observe migratability. 3% ACN, 200 μM control peptide (Ctrl-pep), MSLN-pep 25. For 50, 100, and 200 μM groups, the media in the upper chamber of 24-Transwell were removed, each drug was treated by concentration, and 10% FBS was treated in the lower chamber. Each group was cultured at 37° C. for 24 hours, and then the cells were photographed (original magnification, ×100) by concentration of each peptide. Cells were stained with crystal violet (0.1%), and the ImageJ, a computer program, was used for quantitative evaluation.
After pancreatic cancer cell lines PANC-1 and AsPC-1 were cultured in 24-transwells, all cells were starved for 24 hours to inhibit cell growth, and then treatment was performed in divided groups of 10% FBS, 0% FBS, 3% ACN+10% FBS, 200 μM NSSSVDK+10% FBS, 25 μM MSLN-pep+10% FBS, 50 μM MSLN-pep+10% FBS, 100 μM MSLN-pep+10% FBS, and 200 μM MSLN-pep+10% FBS.

mesothelin [4] = target: T1, mesothelin; experiment: co-localization of TAMRA-labeled MSLN-pep with mesothelin antibody (confocal microscopy); format: cell-based; design: endogenous in cells; conditions: AsPC-1, PANC-1, BxPC-3
Description: Pancreatic cancer cell lines AsPC-1, PANC-1, and BxPC-3 were cultured in a 4-well chamber and then treated with mesothelin antibodies to determine the location where mesothelin is expressed.
Target sequence in this assay (Q13421 with tags, fused parts or gaps limits assumed): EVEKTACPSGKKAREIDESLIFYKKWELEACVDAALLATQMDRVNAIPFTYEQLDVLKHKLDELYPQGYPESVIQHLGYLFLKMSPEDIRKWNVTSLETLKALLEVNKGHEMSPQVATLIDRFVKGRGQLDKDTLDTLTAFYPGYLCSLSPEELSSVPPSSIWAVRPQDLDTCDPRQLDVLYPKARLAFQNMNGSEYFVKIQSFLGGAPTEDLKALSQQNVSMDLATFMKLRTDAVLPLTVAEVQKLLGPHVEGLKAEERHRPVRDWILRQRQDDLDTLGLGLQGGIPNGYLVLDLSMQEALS

[5] = tested on: mesothelin-expressing pancreatic cancer cell lines AsPC-1, PANC-1, BxPC-3, and MiaPaCa-2; experiment: immunofluorescence binding of MSLN-pep to pancreatic cancer cell lines; format: cell-based, human; conditions: 10 μM and 25 μM MSLN-pep
Description: as §1

- binding to mesothelin through phage ELISA and phage immunofluorescence staining (mesothelin [2]): binds to mesothelin in high degree
Structure (SMILES): CC[C@H](C)[C@@H]1NC(=O)[C@H]([C@@H](C)O)NC(=O)[C@@H](N)CSSC[C@@H](C(=O)O)NC(=O)[C@H]([C@@H](C)O)NC(=O)[C@H](CC(C)C)NC(=O)[C@H](CO)NC(=O)[C@H](Cc2c[nH]c3ccccc23)NC(=O)[C@H](CC(C)C)NC1=O [MSLN-pep]
- viability at 200 µM (in vitro): ~80%
- specific binding (immunofluorescence) (mesothelin [1]): bound only to the mesothelin-expressing portion
- migratability compared to treatment of 10% FBS ([3]; 25 μM + 10% FBS): no difference in the migratability and invasiveness
- migratability ([3]; 50, 100 and 200 μM + 10% FBS): suppressed with increasing concentrations of MSLN-pep
- location of binding site relative to mesothelin expression (mesothelin [4]): binding took place at the same spot where the mesothelin is expressed
- specific binding (immunofluorescence) [5]: specific binding of MSLN-pep even at 10 μM with the further increase at 25 μM
